# Measurements reported in patent publication US20060167026A1, “Antipsychotic molecular-targeting epithelial growth factor receptor” (Hiroyuki Nawa, priority 2003, published 2006).
# How the values were obtained:
# [1] = tested on: rats to which EGF was administered as neonates (model for cognitive dysfunction); test: prepulse inhibition of acoustic startle in rats to which EGF was administered as neonates; format: in vivo, rat
# Protocol: Newborn Sprague-Dawley (SD) rats were purchased from SLC (Shizuoka, Japan). Recombinant human EGF (Higeta-Syoyu Co, Chiba Japan) and cytochrome c (Sigma Chemical Co; control) were dissolved in physiologic saline. These agents were administered subcutaneously to rat pups on postnatal days 2, 4, 6, 8, and 10 at the nape of the neck at a dose of 1.75 μg of 1 g body weight).
# Acoustic startle amplitudes and PPI responses were measured in a startle reaction chamber for small animals (SR-Lab Systems, San Diego Instruments, San Diego, Calif.) from postnatal week 3. Acoustic startle was induced with acoustic stimuli (120 dB), in combination with three different prepulse intensities of 5-, 10-, and 15-dB-above background noise (75, 80, 85 dB). The 120 dB pulse was followed 100 ms after one of the prepulses was given. Each rat was placed in the startle chamber and initially acclimatized for 5 min with background noise alone. Prepulse inhibition (PPI) of a startle response was calculated as: 100−[(startle response on prepulse pulse stimulus trials−no stimulus trials)/(pulse alone trials−no stimulus trials)×100].
# SD rats treated with EGF or cytochrome c (control) were tested on postnatal days 56-66. […] The same concentration of DMSO solution was used as a control.
# After anesthesia, a 28 gauge cannula was inserted into the site of rat skull (0.3 mm anterior and 1.2 mm right lateral measured from the bregma, 4.5 mm below the skull) and glued to the skull with dental cement. The end of cannula was connected to an osmotic minipump (250 μl, effective for 14 days model 2002; Azla Corp.) via vinyl tubing. Pumps were implanted subcutaneously in the nape of the neck. […] The scalp incision was closed with surgical suture and staples, and rats were maintained to wait recovery from the operation.
# Seven days after administration, prepulse inhibition of the rats was monitored with 85 dB prepulse intensity using the acoustic startle measurement chamber for small animals (SR-Lab Systems, San Diego Instruments, San Diego, Calif.).
# [2] = tested on: rat model for cognitive dysfunction (EGF administered to neonatal rats); test: latent inhibition in two-way active avoidance, neonatally EGF-treated rat model; format: in vivo
# Protocol: The rat model for cognitive/behavioral dysfunction was prepared as EGF was administered to neonatal rats as described in the method of Experiment 1. SD rats were subjected to the two-way active avoidance task in an automated shuttle box (Muromachi-kiki, Tokyo, Japan) on postnatal weeks 6-8. The conditioned stimulus (CS) was an 80-dB tone and house light on and off. Rats learned the following task: When the CS was on, the animals had to cross to the other side of the shuttle box apparatus (avoidance response) in order to turn the CS off and avoid the appearance of the unconditioned stimulus (US). […] Rats were given 6 sessions of two-way active-avoidance conditioning (10 trials per session)(total 60 trials). Active-avoidance learning was evaluated by scoring the number of avoidance rate to CS.
# Before this learning test was conducted, the CS of an 80-dB tone and house light had been given to normal rats without delivering US (pre-conditioning), following avoidance learning was impaired in these rats (FIG. 5 top; open circle). This is latent inhibition that represents the effect of the pre-exposure of a conditioned stimulus (CS, e.g. tone), preventing the learning of unconditioned stimulus (Russig H et al. Neuropsychopharmacology 26: p 765-777 (2002)).
# When the rat model for cognitive/behavioral dysfunction, which is described in the Experiment 1, was exposed to the pre-conditioning. […] Such persistency can be inducible with hallucinogens such as cocaine (Murphy, C. A. et al. Behav Pharmacol. 12:p 13-23 (2001)).
compound,measurement,setting,value
"COc1cc2ncnc(Nc3ccc(F)c(Cl)c3)c2cc1OCCCN1CCOCC1 [Compound B, 4-(3-chloro4-fluoroanilino)-7-methoxy-6-(3-morphorinopropoxy) quianozoline]",difference in prepulse inhibition between treated model rats and control animals,"[1]; EGF model rats, intraventricular minipump 1 mg/ml, day 7, 85 dB prepulse",no significant differences
same,effect on abnormal decrease in prepulse inhibition,"[1]; EGF model rats, intraventricular osmotic minipump 1 mg/ml, seven days after administration, 85 dB prepulse, compared to solvent-injected group",significantly ameliorated the abnormal decrease in prepulse inhibition
same,effect on prepulse inhibition in normal control rats,"[1]; normal control rats, intraventricular minipump 1 mg/ml, day 7, 85 dB prepulse",had no effects in prepulse inhibition
same,learning ability of treated model rats relative to normal controls,"[2]; EGF model rats, pre-conditioned, two-way active avoidance",indistinguishable from that of normal controls
same,effect on abnormal increase in latent inhibition,"[2]; EGF model rats, pre-conditioned, two-way active avoidance, intraventricular minipump",significantly exert an ameliorative effect on abnormal increase in latent inhibition
same,learning ability in conditioned avoidance learning,"[2]; both normal control rats and model rats, after administration",exhibited better learning ability
